# Literature values as cited in patent US20230383297A1, “NOVEL TARGETS FOR REACTIVATION OF PRADER-WILLI SYNDROME-ASSOCIATED GENES” (Duke University, priority 2020, published 2023).
# Test system: PWS cells
# Settings: also causes DNA demethylation genome-wide
compound,measurement,value
Nc1ncn([C@H]2C[C@H](O)[C@@H](CO)O2)c(=O)n1 [5-Aza-DC],maternal gene expression from the PWS locus,reactivate maternal gene expression from the PWS locus
